Test results reported in ChEMBL document CHEMBL3885881, “DrugMatrix”.

Species on record: Rattus norvegicus
Assay: DrugMatrix - Regimen: Daily Repeat
Format: toxicity, organism-based, Sprague-Dawley
Design: regimen Daily Repeat, gender Male, age 6-8 weeks
Details: in vivo, po, 20 mg/kg, route oral GAVAGE, dose level Low, vehicle .5 % CMC; for ABSOLUTE BASOPHIL / ABSOLUTE EOSINOPHIL / ABSOLUTE LYMPHOCYTE / ABSOLUTE MONOCYTE / ABSOLUTE SEGMENTED NEUTROPHIL / BASOPHIL / EOSINOPHIL / ERYTHROCYTE COUNT / HEMATOCRIT / HEMOGLOBIN / LEUKOCYTE COUNT / LYMPHOCYTE / MEAN CORPUSCULAR HEMOGLOBIN / MEAN CORPUSCULAR HEMOGLOBIN CONCENTRATION / MEAN CORPUSCULAR VOLUME / MONOCYTE / NEUTROPHIL / NUCLEATED RED BLOOD CELLS / PLATELET COUNT: tissue Blood; for ALANINE AMINOTRANSFERASE / ALBUMIN / ALKALINE PHOSPHATASE / ASPARTATE AMINOTRANSFERASE / BLOOD UREA NITROGEN / CARBON DIOXIDE / CHLORIDE / CHOLESTEROL / CREATINE PHOSPHOKINASE / CREATININE / GLUCOSE / LACTATE DEHYDROGENASE / LIPASE / PHOSPHORUS / POTASSIUM / SODIUM / TOTAL BILIRUBIN / TOTAL PROTEIN / URIC ACID: tissue Plasma

CCCCCCNC(=O)n1cc(F)c(=O)[nH]c1=O [CARMOFUR]
ABSOLUTE BASOPHIL (72 h, time 3 day): 0 CELLS/uL
ABSOLUTE EOSINOPHIL (72 h, time 3 day): 56 CELLS/uL
ABSOLUTE LYMPHOCYTE (72 h, time 3 day): 15579 CELLS/uL
ABSOLUTE MONOCYTE (72 h, time 3 day): 284.33 CELLS/uL
ABSOLUTE SEGMENTED NEUTROPHIL (72 h, time 3 day): 1314 CELLS/uL
BASOPHIL (72 h, time 3 day): 0%
EOSINOPHIL (72 h, time 3 day): 0.33%
ERYTHROCYTE COUNT (72 h, time 3 day): 5.63 x10E6/uL
HEMATOCRIT (72 h, time 3 day): 35.8%
HEMOGLOBIN (72 h, time 3 day): 14.23 G/DL
LEUKOCYTE COUNT (72 h, time 3 day): 17.23 x10E3/uL
LYMPHOCYTE (72 h, time 3 day): 90.33%
MEAN CORPUSCULAR HEMOGLOBIN (72 h, time 3 day): 25.27 pg
MEAN CORPUSCULAR HEMOGLOBIN CONCENTRATION (72 h, time 3 day): 39.8 G/DL
MEAN CORPUSCULAR VOLUME (72 h, time 3 day): 63.6 fL
MONOCYTE (72 h, time 3 day): 1.67%
NEUTROPHIL (72 h, time 3 day): 7.67%
NUCLEATED RED BLOOD CELLS (72 h, time 3 day): 0 /100WBC
PLATELET COUNT (72 h, time 3 day): 1328 x10E3/uL
ALANINE AMINOTRANSFERASE (72 h, time 3 day): 51 u/L
ALBUMIN (72 h, time 3 day): 4.43 G/DL
ALKALINE PHOSPHATASE (72 h, time 3 day): 409 u/L
ASPARTATE AMINOTRANSFERASE (72 h, time 3 day): 85.67 u/L
BLOOD UREA NITROGEN (72 h, time 3 day): 13 mg/dL
CARBON DIOXIDE (72 h, time 3 day): 22.67 mmol/L
CHLORIDE (72 h, time 3 day): 103.67 MEQ/L
CHOLESTEROL (72 h, time 3 day): 70.67 mg/dL
CREATINE PHOSPHOKINASE (72 h, time 3 day): 301.67 u/L
CREATININE (72 h, time 3 day): 0.18 mg/dL
GLUCOSE (72 h, time 3 day): 161 mg/dL
LACTATE DEHYDROGENASE (72 h, time 3 day): 305.33 u/L
LIPASE (72 h, time 3 day): 9 u/L
PHOSPHORUS (72 h, time 3 day): 12.3 mg/dL
POTASSIUM (72 h, time 3 day): 6.94 MEQ/L
SODIUM (72 h, time 3 day): 146.4 MEQ/L
TOTAL BILIRUBIN (72 h, time 3 day): 0.17 mg/dL
TOTAL PROTEIN (72 h, time 3 day): 6.13 G/DL
URIC ACID (72 h, time 3 day): 1.63 mg/dL
ABSOLUTE BASOPHIL (120 h, time 5 day): 0 CELLS/uL
ABSOLUTE EOSINOPHIL (120 h, time 5 day): 222.67 CELLS/uL
ABSOLUTE LYMPHOCYTE (120 h, time 5 day): 15078.33 CELLS/uL
ABSOLUTE MONOCYTE (120 h, time 5 day): 213.33 CELLS/uL
ABSOLUTE SEGMENTED NEUTROPHIL (120 h, time 5 day): 719 CELLS/uL
BASOPHIL (120 h, time 5 day): 0%
EOSINOPHIL (120 h, time 5 day): 1.33%
ERYTHROCYTE COUNT (120 h, time 5 day): 5.39 x10E6/uL
HEMATOCRIT (120 h, time 5 day): 34.47%
HEMOGLOBIN (120 h, time 5 day): 13.83 G/DL
LEUKOCYTE COUNT (120 h, time 5 day): 16.23 x10E3/uL
LYMPHOCYTE (120 h, time 5 day): 93%
MEAN CORPUSCULAR HEMOGLOBIN (120 h, time 5 day): 25.67 pg
MEAN CORPUSCULAR HEMOGLOBIN CONCENTRATION (120 h, time 5 day): 40.1 G/DL
MEAN CORPUSCULAR VOLUME (120 h, time 5 day): 64 fL
MONOCYTE (120 h, time 5 day): 1.33%
NEUTROPHIL (120 h, time 5 day): 4.33%
NUCLEATED RED BLOOD CELLS (120 h, time 5 day): 0 /100WBC
PLATELET COUNT (120 h, time 5 day): 1330.33 x10E3/uL
ALANINE AMINOTRANSFERASE (120 h, time 5 day): 47.67 u/L
ALBUMIN (120 h, time 5 day): 4.3 G/DL
ALKALINE PHOSPHATASE (120 h, time 5 day): 311 u/L
ASPARTATE AMINOTRANSFERASE (120 h, time 5 day): 74.33 u/L
BLOOD UREA NITROGEN (120 h, time 5 day): 14 mg/dL
CARBON DIOXIDE (120 h, time 5 day): 23 mmol/L
CHLORIDE (120 h, time 5 day): 103.33 MEQ/L
CHOLESTEROL (120 h, time 5 day): 73.33 mg/dL
CREATINE PHOSPHOKINASE (120 h, time 5 day): 245.33 u/L
CREATININE (120 h, time 5 day): 0.12 mg/dL
GLUCOSE (120 h, time 5 day): 149 mg/dL
LACTATE DEHYDROGENASE (120 h, time 5 day): 124.33 u/L
LIPASE (120 h, time 5 day): 8 u/L
PHOSPHORUS (120 h, time 5 day): 12.67 mg/dL
POTASSIUM (120 h, time 5 day): 6.45 MEQ/L
SODIUM (120 h, time 5 day): 145.27 MEQ/L
TOTAL BILIRUBIN (120 h, time 5 day): 0.23 mg/dL
TOTAL PROTEIN (120 h, time 5 day): 6.07 G/DL
URIC ACID (120 h, time 5 day): 1.57 mg/dL
